From patent publication US11839613B2, “Pyrimidine derivatives as PGE2 receptor modulators” (IDORSIA PHARMACEUTICALS LTD, priority 2017, dated 2023)
pIC50: −log10 of the molar value.

What was measured:
PTGER4 (EP4) = PTGER4 (EP4) (Homo sapiens (Human), UniProt P35408); assay: cell-based
PTGER2 (EP2) = PTGER2 (EP2) (Homo sapiens (Human), UniProt P43116); assay: hEP2 b-arrestin assay (PathHunter HEK 293 PTGER2 b-arrestin cells); format: cell-based; settings: antagonistic activity, beta-arrestin assay; read-out: hEP2 b-arr IC50
Description: Plate is pre-incubated 15 minutes at 37° C. Then five microliters of PGE2 (final conc. 5 μM) are transferred into the assay plate. Plate is incubated 120 minutes at 37° C.
(each concentration is measured in duplicate)

Sequence of PTGER2 (EP2) (P43116 whole entry): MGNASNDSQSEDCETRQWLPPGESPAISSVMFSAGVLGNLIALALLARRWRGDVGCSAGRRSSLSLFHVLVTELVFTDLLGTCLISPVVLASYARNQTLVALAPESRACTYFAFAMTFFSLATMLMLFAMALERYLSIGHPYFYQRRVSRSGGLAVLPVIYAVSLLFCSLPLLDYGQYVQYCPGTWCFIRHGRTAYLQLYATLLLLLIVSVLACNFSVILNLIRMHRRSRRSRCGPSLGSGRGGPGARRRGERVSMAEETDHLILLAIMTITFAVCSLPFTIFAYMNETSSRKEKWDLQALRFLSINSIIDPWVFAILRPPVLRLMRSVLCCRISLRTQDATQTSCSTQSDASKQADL
Sequence of PTGER4 (EP4) (P35408 whole entry): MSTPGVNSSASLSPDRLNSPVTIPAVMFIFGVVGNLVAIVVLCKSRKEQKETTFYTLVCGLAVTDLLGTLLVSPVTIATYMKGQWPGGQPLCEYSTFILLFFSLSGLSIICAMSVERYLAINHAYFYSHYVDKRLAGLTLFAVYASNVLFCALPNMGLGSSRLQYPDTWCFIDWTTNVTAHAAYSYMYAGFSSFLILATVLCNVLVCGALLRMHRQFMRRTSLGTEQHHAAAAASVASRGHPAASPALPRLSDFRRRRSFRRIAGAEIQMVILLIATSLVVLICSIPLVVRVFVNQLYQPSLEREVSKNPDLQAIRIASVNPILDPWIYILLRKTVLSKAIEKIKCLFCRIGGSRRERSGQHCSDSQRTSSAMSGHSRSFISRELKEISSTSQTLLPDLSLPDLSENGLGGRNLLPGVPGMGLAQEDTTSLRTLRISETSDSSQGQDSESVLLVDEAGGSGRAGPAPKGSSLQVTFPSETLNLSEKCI

| Compound | pIC50 (PTGER4 (EP4)) | pIC50 (PTGER2 (EP2)) |
| --- | --- | --- |
| CCCc1cc(-c2cc(NCCc3cc4c(cc3OC)OCCO4)ncn2)ccc1C(=O)O [Example 379, 4-{6-[2-(7-Methoxy-2,3-dihydro-benzo[1,4]dioxin-6-yl)-ethylamino]-pyrimidin-4-yl}-2-propyl-benzoic acid] | 6.81 | 7.29 |
| Cc1cc(-c2cc(NCCc3cc(F)c4sccc4c3)ncn2)cc(C)c1O [Example 532, 4-{6-[2-(7-Fluoro-benzo[b]thiophen-5-yl)-ethylamino]-pyrimidin-4-yl}-2,6-dimethyl-phenol] | 7.16 | 6.53 |
| CCOc1cc(-c2cc(NCCc3cc4ccsc4c(F)c3OC)ncn2)ccc1C(=O)O [Example 404, 2-Ethoxy-4-{6-[2-(7-fluoro-6-methoxy-benzo[b]thiophen-5-yl)-ethylamino]-pyrimidin-4-yl}-benzoic acid] | 7.10 | 7.70 |
| CCOc1cc(-c2cc(NCCc3cc(F)c4sccc4c3)ncn2)ccc1C(=O)NCCO [Example 464, 2-Ethoxy-4-{6-[2-(7-fluoro-benzo[b]thiophen-5-yl)-ethylamino]-pyrimidin-4-yl}-N-(2-hydroxy-ethyl)-benzamide] | 7.06 | 6.52 |
| O=c1nc(-c2ccc(-c3cc(NCCc4cc(F)c5sccc5c4)ncn3)cc2)o[nH]1 [Example 543, 5-(4-(6-((2-(7-fluorobenzo[b]thiophen-5-yl)ethyl)amino)pyrimidin-4-yl)phenyl)-[1,2,4]oxadiazol-3(2H)-one] | 6.91 | 6.21 |
| O=C(O)c1ccc(-c2cc(NCCc3cc(F)c4sccc4c3)ncn2)cc1OC1CCC1 [Example 534, 2-Cyclobutoxy-4-{6-[2-(7-fluoro-benzo[b]thiophen-5-yl)-ethylamino]-pyrimidin-4-yl}-benzoic acid] | 7.15 | 6.48 |
| Cc1c(CCNc2cc(-c3ccc(CC(=O)O)c(OC(F)(F)F)c3)ncn2)ccc2c1OCCO2 [Example 509, (4-{6-[2-(5-Methyl-2,3-dihydro-benzo[1,4]dioxin-6-yl)-ethylamino]-pyrimidin-4-yl}-2-trifluoromethoxy-phenyl)-acetic acid] | 6.45 | 7.54 |
| CCCOc1cc(-c2cc(NCCc3cc4ccsc4cc3OC)ncn2)ccc1CC(=O)O [Example 392, (4-{6-[2-(6-Methoxy-benzo[b]thiophen-5-yl)-ethylamino]-pyrimidin-4-yl}-2-propoxy-phenyl)-acetic acid] | 6.53 | 7.18 |
| COc1cc2c(cc1CCNc1cc(-c3ccc(CC(=O)O)c(CC(C)C)c3)ncn1)OCCO2 [Example 411, (2-Isobutyl-4-{6-[2-(7-methoxy-2,3-dihydro-benzo[1,4]dioxin-6-yl)-ethylamino]-pyrimidin-4-yl}-phenyl)-acetic acid] | 7.51 | 7.01 |
| COc1cc2ccccc2c(C)c1CCNc1cc(-c2ccc(C(=O)O)c(OC3CC3)c2)ncn1 [Example 448, 2-Cyclopropoxy-4-{6-[2-(3-methoxy-1-methyl-naphthalen-2-yl)-ethylamino]-pyrimidin-4-yl}-benzoic acid] | 7.34 | 7.82 |
| CCCc1cc(-c2cc(NCCc3cc4c(cc3OC)OCCO4)ncn2)ccc1CC(=O)O [Example 387, (4-{6-[2-(7-Methoxy-2,3-dihydro-benzo[1,4]dioxin-6-yl)-ethylamino]-pyrimidin-4-yl}-2-propyl-phenyl)-acetic acid] | 7.31 | 7.21 |
| COc1c(CCNc2cc(-c3ccc(C(=O)O)c(CC(C)C)c3)ncn2)cc2ccsc2c1F [Example 415, 4-{6-[2-(7-Fluoro-6-methoxy-benzo[b]thiophen-5-yl)-ethylamino]-pyrimidin-4-yl}-2-isobutyl-benzoic acid] | 7.28 | 7.20 |
| O=C(O)c1ccc(-c2cc(NCCc3ccc4sccc4c3F)ncn2)cc1OC1CCC1 [Example 366, 2-Cyclobutoxy-4-{6-[2-(4-fluoro-benzo[b]thiophen-5-yl)-ethylamino]-pyrimidin-4-yl}-benzoic acid] | 6.92 | 7.08 |
| COc1cc2c(c(C)c1CCNc1cc(-c3ccc(C(=O)O)c(OC4CCC4)c3)ncn1)OCCO2 [Example 396, 2-Cyclobutoxy-4-{6-[2-(7-methoxy-5-methyl-2,3-dihydro-benzo[1,4]dioxin-6-yl)-ethylamino]-pyrimidin-4-yl}-benzoic acid] | 7.36 | 8.70 |
| CCc1cc(-c2cc(NCCc3ccc4ccccc4c3C)ncn2)ccc1C(=O)O [Example 517, 2-Ethyl-4-{6-[2-(1-methyl-naphthalen-2-yl)-ethylamino]-pyrimidin-4-yl}-benzoic acid] | 6.54 | 6.97 |

Further lines, results first:

| pIC50 (PTGER4 (EP4)) | pIC50 (PTGER2 (EP2)) | Compound |
| --- | --- | --- |
| 7.00 | 6.16 | COC(=O)c1ccc(-c2cc(NCCc3cc(F)c4sccc4c3)ncn2)cc1OC1CC1 [Example 538, 2-Cyclopropoxy-4-{6-[2-(7-fluoro-benzo[b]thiophen-5-yl)-ethylamino]-pyrimidin-4-yl}-benzoic acid methyl ester] |
| 6.48 | 6.76 | CCOc1cc(-c2cc(NCCc3ccc4c(c3C)OCCO4)ncn2)ccc1CC(=O)O [Example 506, (2-Ethoxy-4-{6-[2-(5-methyl-2,3-dihydro-benzo[1,4]dioxin-6-yl)-ethylamino]-pyrimidin-4-yl}-phenyl)-acetic acid] |
| 6.80 | 6.46 | CCCOc1cc(-c2cc(NCCc3ccc4sccc4c3)ncn2)ccc1CC(=O)O [Example 479, {4-[6-(2-Benzo[b]thiophen-5-yl-ethylamino)-pyrimidin-4-yl]-2-propoxy-phenyl}-acetic acid] |
| 7.89 | 7.35 | CCCc1cc(-c2cc(NCCc3c(OC)cc4ccccc4c3C)ncn2)ccc1CC(=O)O [Example 388, (4-{6-[2-(3-Methoxy-1-methyl-naphthalen-2-yl)-ethylamino]-pyrimidin-4-yl}-2-propyl-phenyl)-acetic acid] |
| 6.58 | 6.59 | CCOc1cc(-c2cc(NCCc3ccc4ccccc4c3C)ncn2)ccc1Cc1noc(=S)[nH]1 [Example 567, 3-(2-Ethoxy-4-{6-[2-(1-methyl-naphthalen-2-yl)-ethylamino]-pyrimidin-4-yl}-benzyl)-[1,2,4]oxadiazole-5(4H)-thione] |
| 7.72 | 6.61 | CCCc1cc(-c2cc(NCCc3cc(F)c4sccc4c3)ncn2)sc1CC(=O)O [Example 556, (5-{6-[2-(7-Fluoro-benzo[b]thiophen-5-yl)-ethylamino]-pyrimidin-4-yl}-3-propyl-thiophen-2-yl)-acetic acid] |
| 6.75 | 6.94 | CCc1cc(-c2cc(NCCc3cc(F)c4sccc4c3)ncn2)ccc1C(=O)O [Example 518, 2-Ethyl-4-{6-[2-(7-fluoro-benzo[b]thiophen-5-yl)-ethylamino]-pyrimidin-4-yl}-benzoic acid] |
| 7.20 | 6.48 | CCCc1cc(-c2cc(NCCc3ccc4sccc4c3)ncn2)ccc1C(C)C(=O)O (racemic) [Example 481, rac-2-{4-[6-(2-Benzo[b]thiophen-5-yl-ethylamino)-pyrimidin-4-yl]-2-propyl-phenyl}-propionic acid] |
| 7.36 | 6.29 | CN1C(=O)NCc2ccc(-c3cc(NCCc4cc(F)c5sccc5c4)ncn3)cc21 [Example 530, 7-{6-[2-(7-Fluoro-benzo[b]thiophen-5-yl)-ethylamino]-pyrimidin-4-yl}-1-methyl-3,4-dihydro-1H-quinazolin-2-one] |
| 8.22 | 7.70 | CCOc1cc(-c2cc(NCCc3cc(F)c4sccc4c3)ncn2)sc1C(=O)O [Example 362, 3-Ethoxy-5-{6-[2-(7-fluoro-benzo[b]thiophen-5-yl)-ethylamino]-pyrimidin-4-yl}-thiophene-2-carboxylic acid] |
| 6.76 | 7.42 | CCOc1cc2c(cc1CCNc1cc(-c3ccc(C(=O)O)c(CC(C)C)c3)ncn1)OCCO2 [Example 417, 4-{6-[2-(7-Ethoxy-2,3-dihydro-benzo[1,4]dioxin-6-yl)-ethylamino]-pyrimidin-4-yl}-2-isobutyl-benzoic acid] |
| 6.75 | 6.70 | CCCc1cc(-c2cc(NCCc3cc(F)c4sccc4c3)ncn2)ccc1C(N)=O [Example 457, 4-{6-[2-(7-Fluoro-benzo[b]thiophen-5-yl)-ethylamino]-pyrimidin-4-yl}-2-propyl-benzamide] |
| 8.70 | 8.15 | CCOc1cc(-c2cc(NCCc3ccc4sccc4c3F)ncn2)sc1C(=O)O [Example 367, 3-Ethoxy-5-{6-[2-(4-fluoro-benzo[b]thiophen-5-yl)-ethylamino]-pyrimidin-4-yl}-thiophene-2-carboxylic acid] |
| 7.28 | 8.00 | COc1cc2c(c(C)c1CCNc1cc(-c3ccc(CC(=O)O)c(OC(F)F)c3)ncn1)OCCO2 [Example 441, (2-Difluoromethoxy-4-{6-[2-(7-methoxy-5-methyl-2,3-dihydro-benzo[1,4]dioxin-6-yl)-ethylamino]-pyrimidin-4-yl}-phenyl)-acetic acid] |
| 6.94 | 7.59 | CCCc1cc(-c2cc(NCCc3cc4ccsc4c(F)c3OC)ncn2)ccc1C(=O)O [Example 483, 4-{6-[2-(7-Fluoro-6-methoxy-benzo[b]thiophen-5-yl)-ethylamino]-pyrimidin-4-yl}-2-propyl-benzoic acid] |
| 7.10 | 6.37 | CC(C)Oc1cc(-c2cc(NCCc3ccc4sccc4c3F)ncn2)ccc1CC(=O)O [Example 424, (4-{6-[2-(4-Fluoro-benzo[b]thiophen-5-yl)-ethylamino]-pyrimidin-4-yl}-2-isopropoxy-phenyl)-acetic acid] |
| 7.38 | 6.06 | CCOc1cc(-c2cc(NCCc3cc(F)c4sccc4c3)ncn2)sc1CCC(=O)O [Example 535, 3-(3-Ethoxy-5-{6-[2-(7-fluoro-benzo[b]thiophen-5-yl)-ethylamino]-pyrimidin-4-yl}-thiophen-2-yl)-propionic acid] |
